For test [1], the system named is MAP2 promoter. Put plainly: Notch1 inhibition / HES1 knockdown, phMAP2-2 luciferase assay in WM35 primary melanoma cells. The class given is cell-based, human. To be noted: DAPT 1 or 2 μM, 0.6 μg HES1shRNA. As to the method: (§1) Transient transfection and luciferase assays: Transient transfections with various promoter constructs were performed using Lipofectamine (Invitrogen, Carlsbad, Calif.) according to the manufacturer's instructions. Cells in 24- or 6-well tissue culture dishes, in triplicates, were transfected with 0.6 or 3 μg, respectively, of empty vector pGL3 or promoter-reporter constructs (phMAP2-1, phMAP2-2, phMAP2-3 and phMAP2-4) and 0.07 or 0.5 μg Renilla luciferase plasmid pRL. In co-transfection experiments, different amounts of NeuroD and Hes1 expression plasmids were added. For Notch1 inhibition and HES1 knockdown experiments, cells were either pre-treated with indicated amount of γ-secretase inhibitor-DAPT (Calbiochem, La Jolla, Calif.) and/or transfected with indicated amount of lentiviral HES1shRNA plasmid (The RNAi Consortium collection, a library of short hairpin DNAs cloned in pLKO.1 lentiviral vector; Open biosystem, Huntsville, Ala.) 1 day before transfection with MAP2 promoter constructs. After 48 h of transfection, cells were washed with pre-chilled PBS and lysed in passive lysis buffer (Dual Luciferase kit, Promega). Firefly luciferase and Renilla luciferase activities in the cell lysates were measured according to the manufacturer's instructions using TD 20/20-luminometer (Turner Biosystems, Sunnyvale, Calif.). […]

In test [2] the test system is MAP2 promoter. Put plainly: Notch1 inhibition / HES1 knockdown, phMAP2-2 luciferase assay in 451Lu metastatic melanoma cells. Type of test: cell-based, human. The settings on record: DAPT 1 or 2 μM, 0.6 μg HES1shRNA. On the procedure:
as §1

Consider `C[C@H](NC(=O)Cc1cc(F)cc(F)c1)C(=O)N[C@H](C(=O)OC(C)(C)C)c1ccccc1` [DAPT], for which the “MAP2 promoter activity (phMAP2-2 luciferase)” value in the test on MAP2 promoter [1] is “dose-dependent increase”; in the test with MAP2 promoter [2], “not sufficient to activate MAP2 promoter”.

Values taken from patent US20080299563A1, “HUMAN MAP2 GENE PROMOTER” (priority 2007, published 2008).
